From the NIST ThermoML archive (doi:10.1021/acs.jced.8b01048)
± gives the expanded uncertainty stated by the source.

Assay: xn = mol fraction of the nth substance listed
Details: 100 kPa, Liquid, Vibrating tube method

**Q.** Which results are given for CC(=O)[O-].CCn1cc[n+](C)c1 [1-ethyl-3-methylimidazolium acetate] + C[S+](C)[O-]?
**A.** mass density (293.15 K, x2 = 0): 1101.7 ± 0.5 kg/m3; mass density (293.15 K, x2 = 0.053): 1102.4 ± 0.5 kg/m3; mass density (293.15 K, x2 = 0.103): 1103 ± 0.5 kg/m3; mass density (293.15 K, x2 = 0.196): 1103.8 ± 0.5 kg/m3; mass density (293.15 K, x2 = 0.301): 1104.9 ± 0.5 kg/m3; mass density (293.15 K, x2 = 0.401): 1105.8 ± 0.5 kg/m3; mass density (293.15 K, x2 = 0.501): 1106.6 ± 0.5 kg/m3; mass density (293.15 K, x2 = 0.6): 1107.4 ± 0.5 kg/m3; mass density (293.15 K, x2 = 0.686): 1107.6 ± 0.5 kg/m3; mass density (293.15 K, x2 = 0.802): 1107.2 ± 0.5 kg/m3; mass density (293.15 K, x2 = 0.899): 1105.4 ± 0.5 kg/m3; mass density (303.15 K, x2 = 0): 1095.6 ± 0.5 kg/m3; mass density (303.15 K, x2 = 0.053): 1096.3 ± 0.5 kg/m3; mass density (303.15 K, x2 = 0.103): 1096.9 ± 0.5 kg/m3; mass density (303.15 K, x2 = 0.196): 1097.5 ± 0.5 kg/m3; mass density (303.15 K, x2 = 0.301): 1098.4 ± 0.5 kg/m3; mass density (303.15 K, x2 = 0.401): 1099 ± 0.5 kg/m3; mass density (303.15 K, x2 = 0.501): 1099.5 ± 0.5 kg/m3; mass density (303.15 K, x2 = 0.6): 1099.9 ± 0.5 kg/m3; mass density (303.15 K, x2 = 0.686): 1099.9 ± 0.5 kg/m3; mass density (303.15 K, x2 = 0.802): 1098.8 ± 0.5 kg/m3; mass density (303.15 K, x2 = 0.899): 1096.3 ± 0.5 kg/m3; mass density (313.15 K, x2 = 0): 1089.6 ± 0.5 kg/m3; mass density (313.15 K, x2 = 0.053): 1090.3 ± 0.5 kg/m3; mass density (313.15 K, x2 = 0.103): 1090.8 ± 0.5 kg/m3; mass density (313.15 K, x2 = 0.196): 1091.2 ± 0.5 kg/m3; mass density (313.15 K, x2 = 0.301): 1091.8 ± 0.5 kg/m3; mass density (313.15 K, x2 = 0.401): 1092.2 ± 0.5 kg/m3; mass density (313.15 K, x2 = 0.501): 1092.4 ± 0.5 kg/m3; mass density (313.15 K, x2 = 0.6): 1092.5 ± 0.5 kg/m3; mass density (313.15 K, x2 = 0.686): 1092 ± 0.5 kg/m3; mass density (313.15 K, x2 = 0.802): 1090.4 ± 0.5 kg/m3; mass density (313.15 K, x2 = 0.899): 1087.3 ± 0.5 kg/m3; mass density (323.15 K, x2 = 0): 1083.7 ± 0.5 kg/m3; mass density (323.15 K, x2 = 0.053): 1084.2 ± 0.5 kg/m3; mass density (323.15 K, x2 = 0.103): 1084.5 ± 0.5 kg/m3; mass density (323.15 K, x2 = 0.196): 1084.8 ± 0.5 kg/m3; mass density (323.15 K, x2 = 0.301): 1085.2 ± 0.5 kg/m3; mass density (323.15 K, x2 = 0.401): 1085.3 ± 0.5 kg/m3; mass density (323.15 K, x2 = 0.501): 1085.4 ± 0.5 kg/m3; mass density (323.15 K, x2 = 0.6): 1085.1 ± 0.5 kg/m3; mass density (323.15 K, x2 = 0.686): 1084.3 ± 0.5 kg/m3; mass density (323.15 K, x2 = 0.802): 1082 ± 0.5 kg/m3; mass density (323.15 K, x2 = 0.899): 1078.3 ± 0.5 kg/m3; mass density (333.15 K, x2 = 0): 1077.7 ± 0.5 kg/m3; mass density (333.15 K, x2 = 0.053): 1078.1 ± 0.5 kg/m3; mass density (333.15 K, x2 = 0.103): 1078.3 ± 0.5 kg/m3; mass density (333.15 K, x2 = 0.196): 1078.4 ± 0.5 kg/m3; mass density (333.15 K, x2 = 0.301): 1078.7 ± 0.5 kg/m3; mass density (333.15 K, x2 = 0.401): 1078.7 ± 0.5 kg/m3; mass density (333.15 K, x2 = 0.501): 1078.3 ± 0.5 kg/m3; mass density (333.15 K, x2 = 0.6): 1077.8 ± 0.5 kg/m3; mass density (333.15 K, x2 = 0.686): 1076.6 ± 0.5 kg/m3; mass density (333.15 K, x2 = 0.802): 1073.7 ± 0.5 kg/m3; mass density (333.15 K, x2 = 0.899): 1069.3 ± 0.5 kg/m3; mass density (343.15 K, x2 = 0): 1071.8 ± 0.5 kg/m3; mass density (343.15 K, x2 = 0.053): 1072 ± 0.5 kg/m3; mass density (343.15 K, x2 = 0.103): 1072.2 ± 0.5 kg/m3; mass density (343.15 K, x2 = 0.196): 1072.2 ± 0.5 kg/m3; mass density (343.15 K, x2 = 0.301): 1072.1 ± 0.5 kg/m3; mass density (343.15 K, x2 = 0.401): 1071.8 ± 0.5 kg/m3; mass density (343.15 K, x2 = 0.501): 1071.3 ± 0.5 kg/m3; mass density (343.15 K, x2 = 0.6): 1070.4 ± 0.5 kg/m3; mass density (343.15 K, x2 = 0.686): 1068.9 ± 0.5 kg/m3; mass density (343.15 K, x2 = 0.802): 1065.4 ± 0.5 kg/m3; mass density (343.15 K, x2 = 0.899): 1060.3 ± 0.5 kg/m3; mass density (353.15 K, x2 = 0): 1065.9 ± 0.5 kg/m3; mass density (353.15 K, x2 = 0.053): 1066.1 ± 0.5 kg/m3; mass density (353.15 K, x2 = 0.103): 1066.1 ± 0.5 kg/m3; mass density (353.15 K, x2 = 0.196): 1065.9 ± 0.5 kg/m3; mass density (353.15 K, x2 = 0.301): 1065.6 ± 0.5 kg/m3; mass density (353.15 K, x2 = 0.401): 1065.2 ± 0.5 kg/m3; mass density (353.15 K, x2 = 0.501): 1064.4 ± 0.5 kg/m3; mass density (353.15 K, x2 = 0.6): 1063.1 ± 0.5 kg/m3; mass density (353.15 K, x2 = 0.686): 1061.2 ± 0.5 kg/m3; mass density (353.15 K, x2 = 0.802): 1057.1 ± 0.5 kg/m3; mass density (353.15 K, x2 = 0.899): 1051.3 ± 0.5 kg/m3; mass density (363.15 K, x2 = 0): 1060 ± 0.5 kg/m3; mass density (363.15 K, x2 = 0.053): 1060.1 ± 0.5 kg/m3; mass density (363.15 K, x2 = 0.103): 1060 ± 0.5 kg/m3; mass density (363.15 K, x2 = 0.196): 1059.8 ± 0.5 kg/m3; mass density (363.15 K, x2 = 0.301): 1059.3 ± 0.5 kg/m3; mass density (363.15 K, x2 = 0.401): 1058.4 ± 0.5 kg/m3; mass density (363.15 K, x2 = 0.501): 1057.5 ± 0.5 kg/m3; mass density (363.15 K, x2 = 0.6): 1055.8 ± 0.5 kg/m3; mass density (363.15 K, x2 = 0.686): 1053.6 ± 0.5 kg/m3; mass density (363.15 K, x2 = 0.802): 1048.8 ± 0.5 kg/m3; mass density (363.15 K, x2 = 0.899): 1042.3 ± 0.5 kg/m3; mass density (373.15 K, x2 = 0): 1054.2 ± 0.5 kg/m3; mass density (373.15 K, x2 = 0.053): 1054.1 ± 0.5 kg/m3; mass density (373.15 K, x2 = 0.103): 1054 ± 0.5 kg/m3; mass density (373.15 K, x2 = 0.196): 1053.6 ± 0.5 kg/m3; mass density (373.15 K, x2 = 0.301): 1052.9 ± 0.5 kg/m3; mass density (373.15 K, x2 = 0.401): 1051.8 ± 0.5 kg/m3; mass density (373.15 K, x2 = 0.501): 1050.6 ± 0.5 kg/m3; mass density (373.15 K, x2 = 0.6): 1048.5 ± 0.5 kg/m3; mass density (373.15 K, x2 = 0.686): 1046 ± 0.5 kg/m3; mass density (373.15 K, x2 = 0.802): 1040.4 ± 0.5 kg/m3; mass density (373.15 K, x2 = 0.899): 1033.2 ± 0.5 kg/m3
